Test results taken from patent US20110118353A1, “METHOD OF HORMONE SUPPRESSION IN HUMANS” (N. V. Organon, priority 2007, published 2011).

What was measured:
Format in all cases: in vivo, human
[1] = tested on: LH; test: Experiment 1: single rising oral dose trial, serum LH (DELFIA); conditions: healthy male volunteers, single oral doses 0.5-30 mg, 0 to 12 hours post-dose, vs placebo
Procedure: (§1) A double-blind, cross-over, placebo controlled, single rising oral dose trial with compound 1 was carried out in healthy male volunteers to assess its tolerability, safety, pharmacokinetic and pharmacodynamic profile.
(§2) This was a double-blind, placebo-controlled, single rising oral dose study in 16 subjects. Each subject was assigned to one of 4 dosing groups and received 3 successive single oral doses of compound 1 and placebo in a four-way cross-over design. Subjects were male volunteers with a good physical and mental health, aged 18-45 years, body mass index […]. […]
(§3) LH and FSH were measured using a DELFIA assay. […] Testosterone was measured using a DELFIA testosterone assay; a solid phase fluoro-immuno-assay based on competition between Europium-labeled Testosterone and sample Testosterone.
(§4) Effect of treatment was characterised by calculating areas under the effect curve (AUE) over 0-4 h and 0-final assessment time periods. AUEs were calculated with the linear trapezoidal rule using protocol times. […] All measures were analysed using analysis of variance with factors subject and treatment and with the prevalue as covariate. A linear contrast on dose group was calculated with dose groups assigned in ascending order.

[2] = tested on: FSH; test: Experiment 1: single rising oral dose trial, serum FSH (DELFIA); conditions: healthy male volunteers, single oral doses 0.5-30 mg, 0-12 h period; slower than LH
Procedure: as §1, §2, §3, §4

[3] = tested on: testosterone; test: Experiment 1: single rising oral dose trial, serum testosterone (DELFIA); conditions: healthy male volunteers, single oral doses 0.5-30 mg, 0-12 h period; slower than LH
Procedure: as §1, §2, §3, §4

[4] = tested on: LH; test: Experiment 2: single-dose crossover trial, serum LH (DELFIA); conditions: healthy male volunteers, single oral doses 5, 13, 20 mg
From the text: (§5) A single-dose, double-blind, placebo-controlled, randomized, crossover trial to evaluate visual effects of compound 1 in healthy male volunteers
(§6) This was a double-blind, placebo-controlled, four-period crossover study involving the administration of three single oral doses of compound 1 and placebo in 24 healthy male subjects. For each subject the compound 1 treatments were randomized in ascending order, each treatment period was separated by at least 3 days wash-out. Subjects were male volunteers with a good physical and mental health, aged 18-45 years, body mass index 18-28 kg/m^2.
(§7) A freeze dried cake of compound 1 (Batch No CW122) was reconstituted with de-ionized water BP and subsequently diluted with gelatin/mannitol to 50 mL solution for oral administration. Dose levels of compound 1 used in this trial were: 5 mg, 13 mg and 20 mg
(§8) Serum samples for LH, FSH and testosterone analysis were taken at time points: pre-dose and 20′, 45′, 1h10′, 1h35′, 2h, 2h25′, 2h50′, 3h15′, 4h, 6h, 8h, 12h, 16h and 24h post-dose. Serum was stored at −40° C.
(§9) LH and FSH were measured using a DELFIA assay. The DELFIA LH and DELFIA FSH assays are solid phase, two-site fluoroimmunometric assays based on the direct sandwich technique. Testosterone was measured using a DELFIA testosterone assay; a solid phase fluoro-immuno-assay based on competition between Europium-labeled Testosterone and sample Testosterone.
(§10) Descriptive statistics for serum FSH, LH and testosterone concentrations were calculated, both as absolute values and as percentage of baseline. In addition the following parameters were calculated: Cmin, tmin, Cmean,0-24, both Cmin and Cmean,0-24 were expressed in absolute values and as percentage of baseline. No formal statistical analysis was done on these PD parameters. Only descriptive statistics were calculated by dose. Furthermore, summary plots of the PD parameters versus treatment were made

[5] = tested on: FSH; test: Experiment 2: single-dose crossover trial, serum FSH (DELFIA); conditions: healthy male volunteers, single oral doses 5, 13, 20 mg
From the text: as §5, §6, §7, §8, §9, §10

[6] = tested on: testosterone; test: Experiment 2: single-dose crossover trial, serum testosterone (DELFIA); conditions: healthy male volunteers, single oral doses 5, 13, 20 mg
From the text: as §5, §6, §7, §8, §9, §10

[7] = tested on: LH; test: Experiment 3: multiple oral dose study, serum LH (DELFIA); conditions: healthy male volunteers, 4, 8, 16 mg q.d. or 12 mg b.i.d. oral
From the text: (§11) A phase I, double-blind, placebo-controlled, parallel group, multiple oral dose and multiple ascending dose study with compound 1 in healthy male volunteers to assess the safety, tolerability, pharmacokinetics and pharmacodynamics of compound 1 after single, multiple and multiple ascending doses.
(§12) This was a single center, double-blind, placebo-controlled, parallel group design. A total of 40 subjects were randomized over 5 groups of 8 subjects; within each group 6 subjects received multiple oral doses of compound 1 and 2 subjects received placebo. Subjects were male volunteers with a good physical and mental health, aged 18-45 years, body mass index 18-28 kg/m^2.
(§13) Freeze dried cake of compound 1 (Batch No. CW 186) was supplied in 10 mL vials (50 mg active entity in 10 mL vials). The freeze dried cake was reconstituted with sterile de-ionized water B.P and subsequently diluted with sterile de-ionized water to a dose volume of 50 mL. […]
(§14) LH and FSH were measured using a DELFIA assay. […] Testosterone was measured using a DELFIA testosterone assay; a solid phase fluoro-immuno-assay based on competition between Europium-labeled Testosterone and sample Testosterone. […]

[8] = tested on: FSH; test: Experiment 3: multiple oral dose study, serum FSH (DELFIA); conditions: healthy male volunteers, 4, 8, 16 mg q.d. or 12 mg b.i.d. oral
From the text: as §11, §12, §13, §14

[9] = tested on: testosterone; test: Experiment 3: multiple oral dose study, serum testosterone (DELFIA)
From the text: as §11, §12
Freeze dried cake of compound 1 (Batch No. CW 186) was supplied in 10 mL vials (50 mg active entity in 10 mL vials). The freeze dried cake was reconstituted with sterile de-ionized water B.P and subsequently diluted with sterile de-ionized water to a dose volume of 50 mL. Compound 1 was administered as an oral solution (50 mL) according to the following schedule: • Group 1: a single dose of 4 mg compound 1 on day 1 followed by once daily dosing of 4 mg compound 1 on days 4 to 13 • Group 2: a single dose of 8 mg compound 1 on day 1 followed by once daily dosing of 8 mg compound 1 on days 4 to 13 • Group 3: a single dose of 16 mg compound 1 on day 1 followed by once daily dosing of 16 mg compound 1 on days 4 to 13 • Group 4: a single dose of 12 mg compound 1 on day 1, twice daily dosing of 12 mg compound 1 on days 4 to 12 followed by a single dose of 16 mg compound 1 on day 13
For group 5 a dose titration was used. In this group no samples for LH, FSH and testosterone were taken. […]
as §14

[10] = tested on: LH; test: Experiment 4: single oral dose pharmacodynamic study, serum LH (DELFIA); conditions: healthy male volunteers, single oral doses 4, 8, 16 mg
From the text: (§15) A phase I, double-blind, parallel groups, placebo-controlled, cross-over, pharmacodynamic study with compound 1 in healthy male volunteers to assess glycinergic responses in cerebro-spinal fluid and plasma after single oral doses
(§16) This was a double-blind, placebo-controlled, parallel group trial in 15 subjects, randomized to 3 parallel groups of 5 subjects each. The subjects received two single doses in a randomized cross-over design. There was an interval of at least 3 days between the drug administrations. Subjects were male volunteers with a good physical and mental health, aged 18-45 years, body mass index 18-28 kg/m^2.
(§17) A freeze dried cake of compound 1 (Batch No CW122) was reconstituted with sterile water and subsequently further diluted with orange juice to a total volume of 200 mL for oral administration. Dose levels used were: • Group 1: 8 mg compound 1 and […] • Group 2: 16 mg compound 1 and placebo • Group 3: 8 mg compound 1 and 4 mg compound 1
(§18) Serum samples for LH, FSH and testosterone analysis were taken at time points: pre-dose and 1, 2, 3, 4, 6 and 12 hours post dose. Serum was stored at −40° C.
as §3

[11] = tested on: FSH; test: Experiment 4: single oral dose pharmacodynamic study, serum FSH (DELFIA); conditions: healthy male volunteers, single oral doses 4, 8, 16 mg
From the text: as §15, §16, §17, §18, §3

[12] = tested on: testosterone; test: Experiment 4: single oral dose pharmacodynamic study, serum testosterone (DELFIA); conditions: healthy male volunteers, single oral doses 4, 8, 16 mg
From the text: as §15, §16, §17, §18, §3

[13] = 0-24 h, compared with adjusted Cmin
[14] = decrease generally largest after 16 mg

`COc1ccc2c(c1)CC[C@H](CN(C)CC(=O)O)[C@@H]2c1ccccc1.Cl` [compound 1] was tested, and the “treatment effect on LH levels (decrease)” value [1] was “statistically significant treatment effect”, the “FSH concentrations, linear contrast on dose” value [2] was “significant linear decreases with rising doses” and the “testosterone concentrations, linear contrast on dose” value [3] was “significant linear decreases with rising doses”. For the same compound, the “adjusted Cmin LH” value [4] was “decrease with increasing active dose”, the “time of largest LH decrease post dose” value [4] was “approximately 4 h” and the “adjusted Cmean LH” value [4, 13] was “decreases are smaller and less consistent”. For the same compound, the “LH concentrations after treatment” value ([4]; decreases larger at increasing doses) was “decrease after compound 1 treatment”, the “adjusted Cmin FSH” value [5] was “decrease with increasing active dose” and the “effect on FSH concentrations” value [5] was “not clearly visible”. The “adjusted Cmean FSH” value [5, 13] was “decreases are smaller and less consistent”, the “adjusted Cmin Testosterone” value [6] was “decrease with increasing active dose” and the “adjusted Cmean testosterone” value [6, 13] was “decreases are smaller and less consistent”. The “testosterone concentrations after treatment” value ([6]; decreases larger at increasing doses, somewhat slower than LH) was “decrease after compound 1 treatment”, the “time of maximum decreases in LH after dosing” value [7] was 2 h and the “mean LH values” [7, 14] was “decreased following dosing”. For the same compound, the “time of maximum decrease in FSH values post-dose” value [8] was 6 to 12 h, the “mean FSH values” [8, 14] was “decreased following dosing” and the “time post-dose until which testosterone levels dropped” value ([9]; healthy male volunteers, 4, 8, 16 mg q.d. or 12 mg b.i.d. oral) was 6 to 12 h. The “testosterone levels after dosing” value ([9]; healthy male volunteers, 4, 8, 16 mg q.d. or 12 mg b.i.d. oral, partly circadian rhythm, afterwards back to approximately baseline) was “dropped sharply after dosing”, the “magnitude of the testosterone decrease compared with placebo” value ([9]; largest decreases in the 16 mg q.d. and 12 mg b.i.d groups) was “generally larger following administration of compound 1” and the LH suppression [10] was “suppressed to some extent”. The “effect on FSH” value [11] was “No effect” and the testosterone suppression [12] was “suppressed to some extent”.
